Data set [1] has as its system HeLa. In words: Antiproliferation activity against human Hela cells assessed as reduction in cell viability incubated for 72 hrs by MTT assay. The format is functional, cell-based.
A short description of data set [2]: Drug uptake in human MDA-MB-231 cells assessed as decrease in fluorescence intensity at 25 uM for 1 to 24 hrs by fluorescence imaging analysis. Particulars: mda-mb-231, 25 µM, time 1-24 hrs. It counts as ADME, cell-based.
Data set [3] is described as follows: Emission property of the compound assessed as maximum wavelength at 5 uM under pH condition 7.4 at excitation wavelength by fluorescence spectrophotometric method. It counts as physicochemical.
Data set [4] in a line: Emission property of the compound assessed as fluorescence at 5 uM under acidic condition at pH 4 by fluorescence spectrophotometric method. The note with it: pH 4, 5 µM. It counts as physicochemical.
For data set [5], the target named is Histone deacetylase 3 (Homo sapiens, UniProt O15379). Put plainly: Inhibition of human recombinant HDAC3 expressed in baculovirus infected High5 insect cells using Ac-Lys-Tyr-Lys(e-acetyl)-AMC as substrate incubated for 24 hrs measured after 30 mins by microplate reader based spectrophotometric analysis. Further details: species or system BTI-TN-5B1-4.
Data set [6] is described as follows: Chemical stability of compound in PBS buffer assessed as drug degradation at 37 degree C. It counts as physicochemical.
The nature of data set [7]: Drug uptake in human Hela cells assessed as increased fluorescence intensity at 5 to 25 uM for 1 to 24 hrs by fluorescence imaging analysis. It counts as ADME, cell-based. Particulars: dose 1-25 µM, time 1-24 hrs.
Data set [8] is described as follows: Drug uptake in human MDA-MB-231 cells assessed as increased fluorescence intensity at 5 uM for 1 to 24 hrs by fluorescence imaging analysis. It counts as ADME, cell-based. Particulars: mda-mb-231, 25 µM, time 1-24 hrs.
Data set [9] can be described thus: Absorption property of the compound assessed as maximum absorption wavelength at 5 uM under pH condition 7.4 by fluorescence spectrophotometric method. It counts as physicochemical.
For data set [10], the system named is MDA-MB-231. Put plainly: Antiproliferation activity against human MDA-MB-231 cells assessed as reduction in cell viability incubated for 72 hrs by MTT assay. It counts as functional, cell-based.
Data set [11] deals with T1, Protein deacetylase HDAC6 (Homo sapiens, UniProt Q9UBN7).
T1 sequence (Q9UBN7 whole entry): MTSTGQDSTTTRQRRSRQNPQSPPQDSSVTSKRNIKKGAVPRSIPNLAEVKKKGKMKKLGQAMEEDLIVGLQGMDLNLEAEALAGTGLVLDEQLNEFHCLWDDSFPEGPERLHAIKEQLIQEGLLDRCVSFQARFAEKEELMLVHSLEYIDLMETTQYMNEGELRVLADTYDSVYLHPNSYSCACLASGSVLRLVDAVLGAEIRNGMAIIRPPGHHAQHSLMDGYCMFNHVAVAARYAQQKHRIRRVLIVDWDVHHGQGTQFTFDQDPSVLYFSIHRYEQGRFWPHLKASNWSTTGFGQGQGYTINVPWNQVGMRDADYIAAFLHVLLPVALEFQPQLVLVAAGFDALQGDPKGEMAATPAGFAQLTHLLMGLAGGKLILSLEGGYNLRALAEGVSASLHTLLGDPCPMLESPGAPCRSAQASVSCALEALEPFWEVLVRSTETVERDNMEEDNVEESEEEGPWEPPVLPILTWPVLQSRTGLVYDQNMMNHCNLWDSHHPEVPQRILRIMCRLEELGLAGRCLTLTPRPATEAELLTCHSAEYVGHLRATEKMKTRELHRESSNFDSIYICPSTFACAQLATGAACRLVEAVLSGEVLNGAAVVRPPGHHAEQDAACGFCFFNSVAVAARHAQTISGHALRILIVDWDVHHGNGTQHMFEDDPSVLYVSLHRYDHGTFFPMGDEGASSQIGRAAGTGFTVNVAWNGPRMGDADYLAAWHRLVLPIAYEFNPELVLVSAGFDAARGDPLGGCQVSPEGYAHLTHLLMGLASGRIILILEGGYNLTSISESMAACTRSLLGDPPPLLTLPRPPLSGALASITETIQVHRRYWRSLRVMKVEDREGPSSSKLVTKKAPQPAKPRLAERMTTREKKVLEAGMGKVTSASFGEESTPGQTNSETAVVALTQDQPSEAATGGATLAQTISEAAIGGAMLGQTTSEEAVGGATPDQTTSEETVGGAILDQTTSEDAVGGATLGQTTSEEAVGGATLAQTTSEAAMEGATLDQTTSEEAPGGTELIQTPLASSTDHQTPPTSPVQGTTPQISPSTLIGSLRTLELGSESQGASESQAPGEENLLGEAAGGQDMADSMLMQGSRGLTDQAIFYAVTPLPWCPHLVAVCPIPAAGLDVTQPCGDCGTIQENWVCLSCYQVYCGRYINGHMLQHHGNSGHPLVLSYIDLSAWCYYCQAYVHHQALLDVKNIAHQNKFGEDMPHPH
Put plainly: Inhibition of human recombinant HDAC6 expressed in baculovirus infected High5 insect cells using Boc-Lys(eacety1)-AMC as substrate incubated for 3 hrs measured after 30 mins by microplate reader based spectrophotometric analysis. Further details: species or system BTI-TN-5B1-4.

The target in data set [12] is Histone deacetylase 1 (Homo sapiens, UniProt Q13547). In words: Inhibition of human recombinant HDAC1 expressed in baculovirus infected High5 insect cells using Ac-Lys-Tyr-Lys(e-acetyl)-AMC as substrate incubated for 24 hrs measured after 30 mins by microplate reader based spectrophotometric analysis. Also on record: species or system BTI-TN-5B1-4.

Activity calls are given as the source filed them. No cut-off for these calls is given here.

Sequence of Histone deacetylase 3 (O15379 whole entry): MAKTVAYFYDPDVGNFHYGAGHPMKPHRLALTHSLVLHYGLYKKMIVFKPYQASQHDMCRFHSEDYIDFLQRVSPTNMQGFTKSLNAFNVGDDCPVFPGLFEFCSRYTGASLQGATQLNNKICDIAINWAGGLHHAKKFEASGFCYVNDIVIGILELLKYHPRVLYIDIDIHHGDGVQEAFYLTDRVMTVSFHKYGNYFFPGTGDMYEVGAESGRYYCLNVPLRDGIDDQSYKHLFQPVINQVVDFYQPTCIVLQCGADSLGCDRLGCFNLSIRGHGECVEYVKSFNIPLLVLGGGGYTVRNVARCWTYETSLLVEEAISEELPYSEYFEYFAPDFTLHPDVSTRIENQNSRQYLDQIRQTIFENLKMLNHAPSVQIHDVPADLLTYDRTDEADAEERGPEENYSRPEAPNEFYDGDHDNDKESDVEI
Sequence of Histone deacetylase 1 (Q13547 whole entry): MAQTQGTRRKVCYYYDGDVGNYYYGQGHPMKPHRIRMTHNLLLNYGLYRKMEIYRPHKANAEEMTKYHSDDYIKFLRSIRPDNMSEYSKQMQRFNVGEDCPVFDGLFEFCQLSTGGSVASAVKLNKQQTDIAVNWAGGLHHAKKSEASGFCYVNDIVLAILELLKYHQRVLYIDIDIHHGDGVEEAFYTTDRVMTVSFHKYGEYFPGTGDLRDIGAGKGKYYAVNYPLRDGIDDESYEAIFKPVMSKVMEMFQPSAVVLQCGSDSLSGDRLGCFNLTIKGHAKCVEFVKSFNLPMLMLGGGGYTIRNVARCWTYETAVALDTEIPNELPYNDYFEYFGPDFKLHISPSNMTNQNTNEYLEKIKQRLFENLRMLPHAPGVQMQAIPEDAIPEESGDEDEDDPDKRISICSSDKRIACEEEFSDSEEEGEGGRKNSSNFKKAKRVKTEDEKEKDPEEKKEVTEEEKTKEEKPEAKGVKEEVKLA

For the compound `CC[N+]1=C(/C=C/C2=C3Oc4cc(O)cc(OCCCCCCCC(=O)NO)c4C=C3CCC2)C(C)(C)c2ccccc21.[I-]`, the half-maximal inhibitory concentration (IC50) in [1] worked out at 5.91 µM; in data set [5], 0.57 µM; in data set [10] (MDA-MB-231, 72 h), 9.2 µM; in [11], 0.19 µM; in data set [12], 0.36 µM. Further, the Drug uptake entry in data set [2], in [7] and in [8] was “Active” throughout. The Activity in data set [3] is 723 nm; in [4] it was “Not Active”; in data set [9], 707 nm. In addition, in data set [6], the Stabilty entry is “Stable”.
Take `CC[N+]1=C(/C=C/C2=C3Oc4cc(O)cc(OCCCCCCCC(=O)O)c4C=C3CCC2)C(C)(C)c2ccccc21.[I-]`: the result in data set [1] and in data set [10] was inactive. The results for the Drug uptake result in [2], in data set [7] and in [8] were “Active”, “Not Active” and “Not Active”, respectively. Also, the Activity in [3] is 723 nm; in data set [4] it was “Not Active”; in data set [9], 707 nm. The 50% inhibitory concentration (IC50) in data set [5] was determined as 11 µM; in [11] it was 13.8 µM; in [12] it was 9.69 µM.

(Values after ChEMBL document CHEMBL4725332, “The design of a novel near-infrared fluorescent HDAC inhibitor and image of tumor cells” (Bioorg Med Chem, 2020).)
